{
  "source": "patent US20250387417A1",
  "about": "“CANNABINOID DERIVATIVES AND COMPOSITIONS COMPRISING SAME” (CANNASOUL ANALYTICS LTD., priority 2022, published 2025)",
  "system": "MCP-1 secretion",
  "assay": "Acute inflammation: LPS-induced MCP-1 secretion in human colon epithelial cells (ELISA)",
  "assay_type": "cell-based",
  "conditions": "10 ng/ml LPS, 24 hours, ELISA of supernatants, FIG. 1",
  "protocol": "The efficacy of the compounds according to certain embodiments of the present invention in the treatment of IBD was assessed. Human colon epithelial cells were thawed and cultured in suitable media at a final concentration of 4×10^5 cells per mL. The cells were then cultured and tested in triplicates for 48 hours. Following incubation, controls and test compounds were diluted in culture media to achieve the final assay concentration. Cells were treated with 10 ng/ml LPS with or without positive control/test compounds and incubated for 24 hours. Rosiglitazone at 7.2 μg/ml served as a positive control. Following incubation, the supernatants were collected, and the secretion levels of MCP-1 were measured by ELISA (R&D systems). Optical density was determined by ‘CLARIOStar-plus’® plate-reader. The chemokine concentration (pg/ml) was calculated using a standard curve.",
  "data": [
    {"smiles": "CCCCCCc1cc(O)c(C/C=C(\\C)CCC=C(C)C)c(O)c1OC(C)=O", "note": "[(E)-3-(3,7-dimethylocta-2,6-dien-1-yl)-6-hexyl-2,4-dihydroxyphenyl acetate]", "values": [
      {"measurement": "inhibition of MCP-1 secretion", "value": "effectively inhibited MCP-1 secretion in a statistically significant manner"}
    ]},
    {"smiles": "CCCCCc1cc(O)c(CC=C(C)C)c(O)c1OC(C)=O", "note": "[Compound 15]", "values": [
      {"measurement": "inhibition of MCP-1 secretion", "value": "effectively inhibited MCP-1 secretion in a statistically significant manner"},
      {"measurement": "inhibitory effect on MCP-1 secretion compared among the test compounds", "value": "most pronounced inhibitory effect on MCP-1 secretion"}
    ]},
    {"smiles": "CCCCCc1cc(O)c(C2C=C(C)CCC2C(C)(C)O)c(O)c1OC(C)=O", "note": "(stereo not shown) [Compound 17]", "values": [
      {"measurement": "inhibition of MCP-1 secretion", "value": "effectively inhibited MCP-1 secretion in a statistically significant manner"}
    ]}
  ]
}
